Test [1] deals with histamine release from human leukocytes (basophils). Nature of the test: Human basophil assay: inhibition of anti-IgE-induced (IgE-mediated) histamine release. Type of test: cell-based. To be noted: for IC50: Leukocyte; for inhibition of histamine release in human basophils (in words): IgE-mediated, in vitro. Here is the method: In the experiments reported by this example compounds in accordance with the invention are evaluated to determine their ability to inhibit the IgE-mediated release of histamine from sensitized peripheral leucocytes (basophils). Separation of leukocytes is accomplished by a modification of the method of L. Lichtenstein and A. Osler, J. Exp. Med. 120: 507 (1964). Heparinized human blood (80-100 ml) is mixed with 20 ml of saline (0.2%) containing 0.6 g of dextrose and 1.2 g of dextran in propylene centrifuge tubes. The mixture is kept at ambient temperature for 60-90 minutes to allow the separation of erythrocytes from the platelet-leukocyte-rich supernate. The supernate is removed and centrifuged for 8 minutes at 10×g in the cold. The leukocyte pellet is washed twice with Tris buffer and finally suspended in 150-180 ml Tris-ACM buffer at 1-2×10^6 cells/ml. The reaction is carried out in 12×75 mm plastic tubes at a total volume of […]. The reaction medium includes 0.05 ml rabbit anti-human IgE, 0.2 ml of the test compound in Tris-ACM buffer at concentrations ranging from 10-1000 μM, and 1.0 ml of the leukocyte suspension. The reaction mixture is incubated in a 37° C. shaking water bath for 60 minutes. Upon completion of the reaction, the tubes are centrifuged and the supernatants collected. The protein is removed from the supernatants by precipitation with 0.2 ml of 8% perchloric acid. Histamine release is measured by the automated fluorometric method of W Siraganian and W. Hook in Chapter 108, pages 808-821 of the Manual of Clinical Immunology, 2nd Edition, edited by R. Rose and H. Friedman, published by the American Society for Microbiology, Washington, D.C., 1980. Percent inhibition is calculated as follows: [formula] The concentration which causes a 50 percent inhibition (1C50) of histamine release is interpolated from a plot of percent inhibition versus the logarithm of drug concentration.

Test [2] relates to histamine release from basophils activated by ionophore A-23187. Nature of the test: Human basophil assay: inhibition of histamine release induced by non-immunological ionophore A-23187. It counts as cell-based. As to conditions: 1000-fold test dosage range. Here is the method: Separation of leukocytes is accomplished by a modification of the method of L. Lichtenstein and A. Osler, J. Exp. Med. 120: 507 (1964). Heparinized human blood (80-100 ml) is mixed with 20 ml of saline (0.2%) containing 0.6 g of dextrose and 1.2 g of dextran in propylene centrifuge tubes. The mixture is kept at ambient temperature for 60-90 minutes to allow the separation of erythrocytes from the platelet-leukocyte-rich supernate. The supernate is removed and centrifuged for 8 minutes at 10×g in the cold. The leukocyte pellet is washed twice with Tris buffer and finally suspended in 150-180 ml Tris-ACM buffer at 1-2×10^6 cells/ml.
The reaction is carried out in 12×75 mm plastic tubes at a total volume of 1.23 ml. […] The reaction mixture is incubated in a 37° C. shaking water bath for 60 minutes. Upon completion of the reaction, the tubes are centrifuged and the supernatants collected. The protein is removed from the supernatants by precipitation with 0.2 ml of 8% perchloric acid.
Histamine release is measured by the automated fluorometric method of W Siraganian and W. Hook in Chapter 108, pages 808-821 of the Manual of Clinical Immunology, 2nd Edition, edited by R. Rose and H. Friedman, published by the American Society for Microbiology, Washington, D.C., 1980. Percent inhibition is calculated as follows: [formula] […]

Test [3] has as its system lipoxygenase pathway. Nature of the test: Blocking the metabolic conversion of arachidonic acid in the lipoxygenase pathway. To be noted: no method or data given.
[4] abbreviates: 1 h, human basophils, rabbit anti-human IgE, 37° C., 60 minutes, read-out: IN VITRO INHIBITION OF HISTAMINE RELEASE IC50.

Molecules are shown by their SMILES. Where a name gives a salt, the structure may show the parent alone. Read-outs that look alike come from different tables or passages of the source. Where only a bound is given, the exact number is not on record here.

In general, IC50 refers to the concentration at which inhibition is half-maximal. Consider `Clc1ccc(CN2CCN(CCCSSCCCN3CCN(Cc4ccc(Cl)cc4)CC3)CC2)cc1` [Example 1, 1,1'-(Dithiodi-3,1-propanediyl)bis[4-(4-chlorobenzyl)piperazine]], for which the IC50 in test [1] (setting [4]) came to 2 µM. The same measure, in the same setting: as for `Clc1ccc(CN2CCN(CCCSCCN3CCN(Cc4ccc(Cl)cc4)CC3)CC2)cc1` [Example 4, {2-[4-(4-chlorobenzyl)piperazin-1-yl)ethyl}{3-[4-(4-chlorobenzyl)piperazin-1-yl]propyl}sulfide tetrahydrochloride], the figure is 2.4 µM; as for `[O-][S+](CCCN1CCN(Cc2ccc(Cl)cc2)CC1)CCCN1CCN(Cc2ccc(Cl)cc2)CC1` [Example 6, 1,1'-(sulfinyl-3,1-propanediyl) bis[4-(4-chlorobenzyl)piperazine] tetrahydrochloride], 5.6 µM.

Regarding `Cl.Cl.Cl.Cl.Clc1ccc(CCN2CCN(CCCSSCCCN3CCN(CCc4ccc(Cl)cc4)CC3)CC2)cc1` [Example 10, 1,1'-(dithiodi-3,1-propanediyl)-bis [4-(4-chlorophenethyl)piperazine] tetrahydrochloride], the “inhibition of histamine release in human basophils (in words)” value (shortened to “inhibition of histamine release”) in test [1] is given as “absence of observed activity”. Moreover, the IC50 in test [1] (setting [4]) was more than 1000 µM. Take `Clc1ccc(CN2CCCN(CCCSSCCCN3CCCN(Cc4ccc(Cl)cc4)CC3)CC2)cc1` [Example 11, 1,1'-(dithiodi-3,1-propanediyl)bis[4-(4-chlorobenzyl)homopiperizine] tetrahydrochloride]: in test [1], the “inhibition of histamine release” value is listed as “absence of observed activity”. In addition, the IC50 in test [1] (setting [4]) is more than 1000 µM. On to `Clc1ccc(CN2CCN(CCCSCCCN3CCN(Cc4ccc(Cl)cc4)CC3)CC2)cc1` [Example 5, 1,1'-(thio-3,1-propanediyl) bis-[4-(4-chlorobenzyl)piperazine] tetrahydrochloride], for which the IC50 in test [1] (setting [4]) came out at 1.9 µM. For `Cl.Cl.Cl.Cl.Clc1ccc(CCCN2CCN(CCSSCCN3CCN(CCCc4ccc(Cl)cc4)CC3)CC2)cc1` [Example 13, 1,1'-(dithiodi-2,1-ethanediyl)bis{4-[3-(4-chlorophenyl)propyl]piperazine} tetrahydrochloride], in test [1], the “inhibition of histamine release” value was “absence of observed activity”. In test [1] (setting [4]), the IC50 was more than 1000 µM. As for `c1ccc(CN2CCN(CCCSSCCCN3CCN(Cc4ccccc4)CC3)CC2)cc1` [Example 9, 1,1'-(dithiodi-3,1-propanediyl)bis(4-benzylpiperazine) tetrahydrochloride], the concentration for half-maximal inhibition (IC50) in test [1] (setting [4]) was 13.7 µM. Still for that read-out and setting: under `N#Cc1ccc(CN2CCN(CCSSCCN3CCN(Cc4ccc(C#N)cc4)CC3)CC2)cc1` [Example 8, 1,1'-(dithiodi-2,1-ethanediyl)bis[4-(4-cyanobenzyl)piperazine] tetrahydrochloride] stands 28 µM.

`Cc1ccccc1CN1CCN(CCSSCCN2CCN(Cc3ccccc3C)CC2)CC1` [Example 3, 1,1'-(dithiodi-2,1-ethanediyl)bis[4-(2-methylbenzyl)piperazine]tetrahydrochloride]: the half-maximal inhibitory concentration (IC50) in test [1] (setting [4]) came to 15 µM. The same measure, in the same setting: under `O=S(=O)(CCCN1CCN(Cc2ccc(Cl)cc2)CC1)CCCN1CCN(Cc2ccc(Cl)cc2)CC1` [Example 7, 1,1'-(sulfonyl-3,1-propanediyl) bis[4-(4-chlorobenzyl)piperazine] tetrahydrochloride] stands 3.4 µM. With `Clc1ccc(CN2CCN(CCSSCCN3CCN(Cc4ccc(Cl)cc4)CC3)CC2)cc1` [Example 2, 1,1'-(dithiodi-2,1-ethanediyl)bis[4-(4-chlorobenzyl)piperazine]tetrahydrochloride], the concentration for half-maximal inhibition (IC50) in test [2] was 2.67 µM; in test [1] (Homo sapiens, anti-IgE, further repetition of testing, read-out: IC50 (histamine release), further repetition) it was 5.29 µM; in test [1] (Homo sapiens, anti-IgE, range of concentrations up to the limits of its solubility, read-out: IC50 (histamine release)), 3.7 µM; in test [1] (setting [4]), 2.4 µM. Moreover, the “blocking the metabolic conversion of arachidonic acid in the lipoxygenase pathway (in words)” value in test [3] is “effective in blocking”. For `Cc1ccc(CN2CCN(CCSSCCN3CCN(Cc4ccc(C)cc4)CC3)CC2)cc1` [Example 12, 1,1'-(dithiodi-2,1-ethanediyl)bis[4-(4-methylbenzyl)piperazine] tetrahydrochloride], in test [1] (setting [4]), the concentration for half-maximal inhibition (IC50) amounted to 4.7 µM.
